Measured values from ChEMBL document CHEMBL4387706, “Discovery of Novel Spiroindoline Derivatives as Selective Tankyrase Inhibitors” (J Med Chem, 2019).
≈ marks a conversion by molar mass, not a printed value.

Tests used:
[1] = target: T1, Poly [ADP-ribose] polymerase tankyrase-1 (Homo sapiens, UniProt O95271)
T1 sequence (O95271 whole entry): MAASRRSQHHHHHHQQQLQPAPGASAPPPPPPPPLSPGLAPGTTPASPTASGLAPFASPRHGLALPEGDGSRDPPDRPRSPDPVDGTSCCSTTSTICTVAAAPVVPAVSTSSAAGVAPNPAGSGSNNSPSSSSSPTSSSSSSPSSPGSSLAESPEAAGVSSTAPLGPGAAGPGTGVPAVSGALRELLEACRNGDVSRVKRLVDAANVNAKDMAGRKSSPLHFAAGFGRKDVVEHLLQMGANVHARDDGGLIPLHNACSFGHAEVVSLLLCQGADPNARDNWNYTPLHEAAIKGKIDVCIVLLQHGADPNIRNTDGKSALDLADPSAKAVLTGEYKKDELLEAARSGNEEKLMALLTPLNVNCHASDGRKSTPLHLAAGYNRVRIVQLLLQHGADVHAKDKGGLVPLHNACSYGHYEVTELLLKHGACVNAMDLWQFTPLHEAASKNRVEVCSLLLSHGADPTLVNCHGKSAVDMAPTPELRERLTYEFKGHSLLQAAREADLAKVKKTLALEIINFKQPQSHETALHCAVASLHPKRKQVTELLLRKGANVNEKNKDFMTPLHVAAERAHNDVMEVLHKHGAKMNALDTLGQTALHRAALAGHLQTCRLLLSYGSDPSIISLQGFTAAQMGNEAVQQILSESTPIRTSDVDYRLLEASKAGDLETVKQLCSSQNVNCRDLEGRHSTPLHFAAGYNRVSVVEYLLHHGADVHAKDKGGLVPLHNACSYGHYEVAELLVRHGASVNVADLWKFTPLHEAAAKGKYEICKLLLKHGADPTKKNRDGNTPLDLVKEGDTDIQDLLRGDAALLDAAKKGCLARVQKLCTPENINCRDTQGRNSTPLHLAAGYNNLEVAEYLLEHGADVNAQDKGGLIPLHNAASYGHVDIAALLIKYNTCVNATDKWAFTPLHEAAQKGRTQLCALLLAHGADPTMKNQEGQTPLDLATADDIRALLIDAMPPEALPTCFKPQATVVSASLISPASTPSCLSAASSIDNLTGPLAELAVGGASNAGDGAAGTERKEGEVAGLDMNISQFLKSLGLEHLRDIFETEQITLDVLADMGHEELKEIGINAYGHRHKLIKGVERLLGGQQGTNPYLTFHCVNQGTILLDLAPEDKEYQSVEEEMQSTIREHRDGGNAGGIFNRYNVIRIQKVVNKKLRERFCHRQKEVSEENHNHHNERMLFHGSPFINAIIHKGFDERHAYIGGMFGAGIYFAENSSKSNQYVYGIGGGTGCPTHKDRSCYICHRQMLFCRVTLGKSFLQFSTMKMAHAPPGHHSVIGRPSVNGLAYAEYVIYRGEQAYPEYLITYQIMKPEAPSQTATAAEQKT
Description: Inhibition of recombinant human N-terminal TEV cleavage site-fused/FLAG-poly his-tagged TNKS SAM-PARP domain (1024 to 1327 residues) expressed in Escherichia coli assessed as reduction in auto-PARylation preincubated for 10 mins followed by biotinylated-NAD+ addition and measured after 45 mins by ELISA

[2] = target: T2, Poly [ADP-ribose] polymerase tankyrase-2 (Homo sapiens, UniProt Q9H2K2)
T2 sequence (Q9H2K2 whole entry): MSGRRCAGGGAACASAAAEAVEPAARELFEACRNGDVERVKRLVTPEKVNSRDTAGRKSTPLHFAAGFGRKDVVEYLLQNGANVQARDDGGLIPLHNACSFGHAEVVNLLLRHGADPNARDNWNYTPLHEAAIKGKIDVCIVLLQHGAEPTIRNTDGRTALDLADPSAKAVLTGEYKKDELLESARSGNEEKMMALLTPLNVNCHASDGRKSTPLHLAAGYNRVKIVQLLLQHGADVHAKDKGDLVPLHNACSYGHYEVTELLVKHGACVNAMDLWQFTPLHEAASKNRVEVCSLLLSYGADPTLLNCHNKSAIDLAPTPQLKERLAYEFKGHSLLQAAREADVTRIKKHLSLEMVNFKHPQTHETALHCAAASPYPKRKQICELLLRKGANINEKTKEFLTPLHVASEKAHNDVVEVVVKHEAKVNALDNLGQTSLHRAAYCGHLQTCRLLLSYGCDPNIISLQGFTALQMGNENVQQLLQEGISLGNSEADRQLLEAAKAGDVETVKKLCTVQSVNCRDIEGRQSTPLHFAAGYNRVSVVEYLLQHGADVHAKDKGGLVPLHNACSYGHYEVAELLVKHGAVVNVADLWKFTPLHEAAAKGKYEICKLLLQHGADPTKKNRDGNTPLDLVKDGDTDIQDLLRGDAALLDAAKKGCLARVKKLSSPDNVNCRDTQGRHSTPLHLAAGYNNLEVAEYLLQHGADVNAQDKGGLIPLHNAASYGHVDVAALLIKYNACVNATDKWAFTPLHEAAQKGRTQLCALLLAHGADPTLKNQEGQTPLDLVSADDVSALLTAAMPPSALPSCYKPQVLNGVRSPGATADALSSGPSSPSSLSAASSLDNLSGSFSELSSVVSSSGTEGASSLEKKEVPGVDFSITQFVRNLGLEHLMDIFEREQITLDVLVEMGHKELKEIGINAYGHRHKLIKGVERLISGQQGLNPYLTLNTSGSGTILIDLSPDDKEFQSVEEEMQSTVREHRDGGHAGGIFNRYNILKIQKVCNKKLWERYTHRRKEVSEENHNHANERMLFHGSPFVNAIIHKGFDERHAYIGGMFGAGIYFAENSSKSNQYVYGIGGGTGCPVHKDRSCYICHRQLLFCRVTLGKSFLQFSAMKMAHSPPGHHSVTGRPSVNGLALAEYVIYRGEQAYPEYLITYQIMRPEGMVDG
Description: Inhibition of recombinant human N-terminal TEV cleavage site-fused/FLAG-poly his-tagged TNKS2 SAM-PARP domain (613 to 1166 residues) expressed in Escherichia coli assessed as reduction in auto-PARylation preincubated for 10 mins followed by biotinylated-NAD+ addition and measured after 45 mins by ELISA

[3] = target: Poly [ADP-ribose] polymerase 1 (Homo sapiens, UniProt P09874)
Description: Inhibition of recombinant human PARP1 expressed in Escherichia coli assessed as reduction in auto-PARylation using histone as substrate measured after 45 mins in presence of biotinylated-NAD+ by ELISA

Tankyrase 1/2 = target: T3, Tankyrase 1/2 (Homo sapiens, UniProt Q9H2K2+O95271)
T3 sequence (Q9H2K2 whole entry): T2 sequence (Q9H2K2 whole entry)
T3 sequence (O95271 whole entry): T1 sequence (O95271 whole entry)
Description: Inhibition of TNKS/TNKS2 (unknown origin) expressed in human DLD1 cells assessed as reduction in Wnt-signaling measured after 24 hrs by TCF-luciferase reporter gene assay

COLO 320DM = assay: cells; settings: Homo sapiens, 96 h
Description: Antiproliferative activity against human COLO320DM cells assessed as inhibition of cell growth measured after 4 days by CellTiter-Glo assay

physchem = settings: phosphate buffer, pH 7.4

Sequence of Poly [ADP-ribose] polymerase 1 (P09874 whole entry): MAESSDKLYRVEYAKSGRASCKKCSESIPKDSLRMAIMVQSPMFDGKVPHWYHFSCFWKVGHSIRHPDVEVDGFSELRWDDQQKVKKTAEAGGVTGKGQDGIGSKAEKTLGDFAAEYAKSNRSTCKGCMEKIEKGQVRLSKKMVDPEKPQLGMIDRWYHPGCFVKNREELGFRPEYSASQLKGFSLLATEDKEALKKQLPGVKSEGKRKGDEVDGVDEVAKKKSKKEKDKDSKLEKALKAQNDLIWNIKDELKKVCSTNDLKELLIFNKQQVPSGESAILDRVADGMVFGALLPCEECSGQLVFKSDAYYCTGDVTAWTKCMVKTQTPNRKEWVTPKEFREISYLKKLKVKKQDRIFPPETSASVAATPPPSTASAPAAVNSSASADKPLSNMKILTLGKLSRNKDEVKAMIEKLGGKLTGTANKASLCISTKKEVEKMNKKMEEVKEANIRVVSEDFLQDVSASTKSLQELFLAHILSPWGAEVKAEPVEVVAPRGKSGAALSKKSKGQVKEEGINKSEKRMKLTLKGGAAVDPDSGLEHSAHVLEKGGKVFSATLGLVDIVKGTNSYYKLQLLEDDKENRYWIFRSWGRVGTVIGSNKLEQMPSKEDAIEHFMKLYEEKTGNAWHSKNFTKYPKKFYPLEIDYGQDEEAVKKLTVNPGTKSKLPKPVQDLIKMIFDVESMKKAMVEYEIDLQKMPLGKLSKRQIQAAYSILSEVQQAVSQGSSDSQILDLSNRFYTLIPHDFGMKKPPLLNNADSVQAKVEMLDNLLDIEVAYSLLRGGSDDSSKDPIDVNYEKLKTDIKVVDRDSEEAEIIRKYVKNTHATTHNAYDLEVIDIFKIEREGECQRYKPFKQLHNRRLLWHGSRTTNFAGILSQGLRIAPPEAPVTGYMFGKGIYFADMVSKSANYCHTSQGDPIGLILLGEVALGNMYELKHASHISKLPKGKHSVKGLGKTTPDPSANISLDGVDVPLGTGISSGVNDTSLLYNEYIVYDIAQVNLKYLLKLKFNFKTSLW

Row | Structure (SMILES) | IC50 [1] | IC50 [2] | IC50 [3] | IC50 (Tankyrase 1/2) | GI50 (COLO 320DM) | solubility at 1 h, 200 µM (physchem)
1 | COc1cccc(N2CCN(c3nc4c(c(=O)[nH]3)CSCC4)CC2)c1 | 6.2 nM | 4.8 nM | > 20000 nM | 148 nM | 7400 nM | 1.7 µg/mL (≈ 4.74 µM)
2 | COc1ccccc1N1CCN(c2nc3c(c(=O)[nH]2)CNCC3)CC1 | 7780 nM | 6980 nM | – | > 10000 nM | – | 66.4 µg/mL (≈ 194 µM)
3 | COc1ccccc1N1CCCN(c2nc3c(c(=O)[nH]2)CCCC3)CC1 | 6010 nM | – | > 20000 nM | 9144 nM | 41900 nM | 69.6 µg/mL (≈ 196 µM)
4 | COc1ccccc1N1CCN(c2nc3c(c(=O)[nH]2)CC(C)CC3)CC1 (stereo unspecified) | 1350 nM | 3480 nM | – | 7282 nM | – | 1.8 µg/mL (≈ 5.08 µM)
5 | COc1ccccc1N1CCN(c2nc3c(c(=O)[nH]2)COCC3)CC1 | 67.6 nM | 112 nM | > 20000 nM | 1009 nM | 17100 nM | 12.3 µg/mL (≈ 35.9 µM)
6 | O=C1Nc2cccc(Br)c2C12CCN(c1nc3c(c(=O)[nH]1)CCCC3)CC2 | 5.8 nM | 13.4 nM | – | 91.2 nM | 8800 nM | 1.9 µg/mL (≈ 4.43 µM)
7 | COc1ccccc1N1CCC(c2nc3c(c(=O)[nH]2)CCCC3)CC1 | 14300 nM | 6420 nM | – | 5401 nM | 19600 nM | –
8 | COc1ccc(N2CCN(c3nc4c(c(=O)[nH]3)CSCC4)CC2)cc1 | 3.4 nM | 2.6 nM | > 20000 nM | 114 nM | > 50000 nM | 0.9 µg/mL (≈ 2.51 µM)
9 | COc1ccccc1N1CCN(c2nc3c(c(=O)[nH]2)CSCC3)CC1 | 2.5 nM | 2.3 nM | > 20000 nM | 23.2 nM | 3800 nM | 0.5 µg/mL (≈ 1.39 µM)
10 | COc1cccc(N2CCN(c3nc4c(c(=O)[nH]3)CCCC4)CC2)c1 | 39.4 nM | 39.7 nM | > 20000 nM | 1066 nM | 14200 nM | 5.2 µg/mL (≈ 15.3 µM)
11 | O=C1NC2(CCN(c3nc4c(c(=O)[nH]3)CCCC4)CC2)c2ccccc21 | 514 nM | 258 nM | > 20000 nM | > 10000 nM | 97700 nM | 70.1 µg/mL (≈ 200 µM)
12 | N#Cc1cccc2c1C1(CCN(c3nc4c(c(=O)[nH]3)CCCC4)CC1)C(=O)N2 | 16.8 nM | 26.8 nM | – | 496 nM | 20400 nM | 5.3 µg/mL (≈ 14.1 µM)
13 | COc1ccccc1N1CCN(c2nc3c(c(=O)[nH]2)CN(C)CC3)CC1 | > 20000 nM | > 20000 nM | – | > 10000 nM | – | 69.7 µg/mL (≈ 196 µM)
14 | COc1ccccc1N1CCN(c2nc3c(c(=O)[nH]2)CC(C)(C)CC3)CC1 | > 20000 nM | > 20000 nM | – | > 10000 nM | – | 2.4 µg/mL (≈ 6.51 µM)
15 | Oc1nc(N2CCN(c3ccccc3)CC2)nc2c1CCCC2 | 135 nM | 58.9 nM | – | 1536 nM | – | 4.9 µg/mL (≈ 15.8 µM)
16 | O=C1Nc2cccc(Cl)c2C12CCN(c1nc3c(c(=O)[nH]1)CCCC3)CC2 | 10.2 nM | 4.9 nM | – | 21.5 nM | 5000 nM | 2.8 µg/mL (≈ 7.28 µM)
17 | COc1ccccc1N1CCN(C2=NC3CCCCCC3C(=O)N2)CC1 (stereo unspecified) | – | – | – | > 10000 nM | – | –

Results, then the compound that gave them:

Row | IC50 [1] | IC50 [2] | IC50 [3] | IC50 (Tankyrase 1/2) | GI50 (COLO 320DM) | solubility at 1 h, 200 µM (physchem) | Structure (SMILES)
18 | 16.7 nM | 7.6 nM | – | 657 nM | 10300 nM | 3.2 µg/mL (≈ 9.03 µM) | O=c1[nH]c(N2CCC3(CC2)CNc2cc(F)ccc23)nc2c1CCCC2
19 | 6.4 nM | 5.3 nM | – | 247 nM | 4900 nM | 2.6 µg/mL (≈ 7.01 µM) | O=c1[nH]c(N2CCC3(CC2)CNc2cccc(Cl)c23)nc2c1CCCC2
20 | 11.1 nM | 14.4 nM | – | 623 nM | 19900 nM | 1.8 µg/mL (≈ 4.68 µM) | O=C1Nc2cc(Cl)ccc2C12CCN(c1nc3c(c(=O)[nH]1)CCCC3)CC2
21 | 8.4 nM | 5.8 nM | – | 818 nM | 6900 nM | 9.2 µg/mL (≈ 24.8 µM) | O=c1[nH]c(N2CCC3(CC2)CNc2cc(Cl)ccc23)nc2c1CCCC2
22 | 11 nM | 12 nM | – | 369 nM | 15000 nM | 62.9 µg/mL (≈ 171 µM) | O=C1Nc2cc(F)ccc2C12CCN(c1nc3c(c(=O)[nH]1)CCCC3)CC2
23 | 6.4 nM | 7.5 nM | – | 43.9 nM | 4200 nM | 0.8 µg/mL (≈ 2.07 µM) | O=C1Nc2cc(F)cc(F)c2C12CCN(c1nc3c(c(=O)[nH]1)CCCC3)CC2
24 | 16 nM | 15.6 nM | – | 454 nM | 10400 nM | 8.9 µg/mL (≈ 21.4 µM) | O=c1[nH]c(N2CCC3(CC2)CNc2cccc(Br)c23)nc2c1CCCC2
25 | 4.4 nM | 2.8 nM | – | 72.4 nM | 3300 nM | 4.2 µg/mL (≈ 11.9 µM) | O=c1[nH]c(N2CCC3(CC2)CNc2cccc(F)c23)nc2c1CCCC2
26 | 5.8 nM | 4.7 nM | – | 31.1 nM | 2300 nM | 3.1 µg/mL (≈ 8.41 µM) | O=C1Nc2cccc(F)c2C12CCN(c1nc3c(c(=O)[nH]1)CCCC3)CC2
27 | 9.9 nM | 18.5 nM | – | 799 nM | 23600 nM | 69.2 µg/mL (≈ 191 µM) | N#Cc1cccc2c1C1(CCN(c3nc4c(c(=O)[nH]3)CCCC4)CC1)CN2
28 | 5.4 nM | 3.3 nM | – | 110 nM | 5200 nM | 6.3 µg/mL (≈ 16.9 µM) | O=c1[nH]c(N2CCC3(CC2)CNc2cc(F)cc(F)c23)nc2c1CCCC2
29 | 7.5 nM | 10.4 nM | – | 609 nM | 7500 nM | 11 µg/mL (≈ 27.1 µM) | O=c1[nH]c(N2CCC3(CC2)CNc2cc(Cl)cc(Cl)c23)nc2c1CCCC2
30 | 5.3 nM | 7.1 nM | – | 533 nM | 21400 nM | 15.7 µg/mL (≈ 37.4 µM) | O=C1Nc2cc(Cl)cc(Cl)c2C12CCN(c1nc3c(c(=O)[nH]1)CCCC3)CC2
